{"source": "patent US11839683B2", "about": "“Method of rapidly achieving therapeutic concentrations of triptans for treatment of migraines” (EMERGEX USA CORPORATION, priority 2016, dated 2023)", "key": {"[1]": {"details": "cited from earlier work"}, "migraine": {"tested_on": "migraine", "details": "cited from earlier work"}, "clinical": {"assay": "clinical", "details": "human, in vivo", "description": "The final treatment administered was 3.8 mg on a 10 cm^2 patch using an applicator with 0.52 Joule of application energy in the intracutaneous microneedle system described herein. The products tested were:\n(§1) This was a single-center, open-label, randomized five-way crossover study (Part 1) followed by a sequential study of two additional treatments (Parts 2 and 3). After obtaining informed consent and establishing eligibility, each subject received each of the seven study treatments once, followed by in-clinic monitoring and extensive blood sample collection for pharmacokinetic analysis. […] Plasma samples from the initial dosing days were sent to the analytical laboratory for analysis, and tolerability for each of the dose levels was summarized. […] During Part 3, subjects received a single 3.8 mg patch (applied with a 0.52 J applicator) and also completed identical procedures to the previous dosing days. After completion of the seven dosing days, subjects were assessed one final time and dismissed from the study.\nTwenty subjects were enrolled in the study, 10 males and 10 females. The subjects mean age was 29 years±3.5 years with a mean BMI of 24.4±3.5.\n(§2) PK parameters were summarized by treatment group using descriptive statistics (arithmetic means, standard deviations, coefficients of variation, sample size, minimum, maximum, and median).\nGraphs of apparent dose linearity and proportionality of PK parameters (AUCt, AUCinf and Cmax) were compiled."}, "[2]": {"details": "in vivo", "from_the_text": "as §1, §2"}, "[3]": {"details": "TABLET 100 mg, 1 hour, Tfelt-Hansen et al, 1998"}, "[4]": {"details": "TABLET 100 mg, 2 hour, Tfelt-Hansen et al, 1998"}, "[5]": {"details": "TABLET 2.5 mg, 1 hour, Bomhof et al, 1999"}, "[6]": {"details": "TABLET 2.5 mg, 2 hour, Bomhof et al, 1999"}, "[7]": {"details": "TABLET 80 mg, 1 hour, Sheftell et al 2003"}, "[8]": {"details": "TABLET 80 mg, 2 hour, Sheftell et al 2003"}, "[9]": {"details": "TABLET 80 mg, 4 hour, Sheftell et al 2003"}, "[10]": {"details": "TABLET 10 mg, 1 hour, Tfelt-Hansen et al, 1998"}, "[11]": {"details": "TABLET 10 mg, 2 hour, Tfelt-Hansen et al, 1998"}, "[12]": {"details": "WAFER 5 mg, 1 hour, Ahrens et al, 1999"}, "[13]": {"details": "WAFER 5 mg, 2 hour, Ahrens et al, 1999"}, "[14]": {"details": "WAFER 10 mg, 1 hour, Ahrens et al, 1999"}, "[15]": {"details": "WAFER 10 mg, 2 hour, Ahrens et al, 1999"}}, "note": "Read-outs that look alike come from different tables or passages of the source."}
{"smiles": "CNS(=O)(=O)Cc1ccc2[nH]cc(CCN(C)C)c2c1", "note": "[Sumatriptan, sumatriptan]", "values": [{"measurement": "Tmax after oral tablet administration", "setting": "[1]; oral tablet", "result": "about 2 hours"}, {"measurement": "bioavailability, oral administration (as a succinate)", "setting": "[1]; oral", "result": "about 15%"}, {"measurement": "Tmax achieved earlier than the conventional tablet", "setting": "[1]; rapid-release tablet formulation, on average", "result": "10 to 15", "unit": "min"}, {"measurement": "% PAIN FREE", "setting": "migraine; [3]", "result": 7.8, "unit": "%"}, {"measurement": "% PAIN RELIEF", "setting": "migraine; [3]", "result": 27.9, "unit": "%"}, {"measurement": "% PAIN FREE", "setting": "migraine; [4]", "result": 32.8, "unit": "%"}, {"measurement": "% PAIN RELIEF", "setting": "migraine; [4]", "result": 61.8, "unit": "%"}]}
{"smiles": "CNS(=O)(=O)CCc1ccc2[nH]cc(C3CCN(C)CC3)c2c1", "note": "[naratriptan]", "values": [{"measurement": "% PAIN FREE", "setting": "migraine; [5]", "result": 3.3, "unit": "%"}, {"measurement": "% PAIN RELIEF", "setting": "migraine; [5]", "result": 27.7, "unit": "%"}, {"measurement": "% PAIN FREE", "setting": "migraine; [6]", "result": 20.7, "unit": "%"}, {"measurement": "% PAIN RELIEF", "setting": "migraine; [6]", "result": 48.4, "unit": "%"}, {"measurement": "pain freedom at 2 hours", "setting": "migraine; lowest oral dose", "result": 18, "unit": "%"}, {"measurement": "pain relief at 2 hours", "setting": "migraine; lowest oral dose", "result": 49, "unit": "%"}]}
{"smiles": "CN1CCC[C@@H]1Cc1c[nH]c2ccc(CCS(=O)(=O)c3ccccc3)cc12", "note": "[Eletriptan]", "values": [{"measurement": "% PAIN FREE", "setting": "migraine; [7]", "result": 10.0, "unit": "%"}, {"measurement": "% PAIN RELIEF", "setting": "migraine; [7]", "result": 32.0, "unit": "%"}, {"measurement": "% PAIN FREE", "setting": "migraine; [8]", "result": 27.0, "unit": "%"}, {"measurement": "% PAIN RELIEF", "setting": "migraine; [8]", "result": 59.0, "unit": "%"}, {"measurement": "% PAIN FREE", "setting": "migraine; [9]", "result": 49.0, "unit": "%"}, {"measurement": "% PAIN RELIEF", "setting": "migraine; [9]", "result": 79.0, "unit": "%"}]}
{"smiles": "CN(C)CCc1c[nH]c2ccc(C[C@H]3COC(=O)N3)cc12", "note": "[Oral Zolmi]", "values": [{"measurement": "AUC0-last/Dose", "setting": "clinical; po, 2.5 mg", "result": 8.6}, {"measurement": "Tmax Med (Range)", "setting": "clinical; po, 2.5 mg", "result": "60 (30-240)"}]}
{"smiles": "CNCCc1c[nH]c2ccc(C[C@H]3COC(=O)N3)cc12", "note": "[N-desmethyl zolmitriptan]", "values": [{"measurement": "Mean AUCinf of N-desmethyl metabolite", "setting": "[2]; human", "result": 14.55, "unit": "ng·H/mL"}, {"measurement": "Mean Cmax of N-desmethyl metabolite", "setting": "[2]; human", "result": 2.08, "unit": "ng/mL"}, {"measurement": "Tmax of N-desmethyl metabolite", "setting": "[2]; human", "result": "54.7 to 65.0", "unit": "min"}, {"measurement": "Mean AUCinf of N-desmethyl metabolite", "setting": "[2]; human, 0.48 mg", "result": 1.38, "unit": "ng·H/mL"}, {"measurement": "Mean Cmax of N-desmethyl metabolite", "setting": "[2]; human, 0.48 mg", "result": 0.22, "unit": "ng/mL"}, {"measurement": "Mean AUCinf of N-desmethyl metabolite", "setting": "[2]; human, 3.8 mg", "result": 8.17, "unit": "ng·H/mL"}, {"measurement": "Mean Cmax of N-desmethyl metabolite", "setting": "[2]; human, 3.8 mg", "result": 1.77, "unit": "ng/mL"}, {"measurement": "elimination half life (t1/2) of the metabolite", "setting": "[2]; human, po", "result": "2.7-3.31 H"}, {"measurement": "time to peak plasma concentration of the N-desmethyl metabolite", "setting": "[2]", "result": "around 1 hour"}, {"measurement": "time to peak plasma concentration of the N-desmethyl metabolite", "setting": "[2]; po", "result": 2.7, "unit": "h"}]}
{"smiles": "CNS(=O)(=O)Cc1ccc2[nH]cc(CCN(C)C)c2c1", "note": "[SC Suma]", "values": [{"measurement": "Tmax Med (Range)", "setting": "clinical; sc, 6 mg", "result": "10 (5-20)"}]}
{"smiles": "CN[C@@H]1CCc2[nH]c3ccc(C(N)=O)cc3c2C1", "note": "[frovatriptan]", "values": [{"measurement": "efficacy in 2-hour response, 2-hour pain free compared to the other triptans", "setting": "migraine; oral", "result": "lowest efficacy"}]}
{"smiles": "CN(C)CCc1c[nH]c2ccc(Cn3cncn3)cc12", "note": "[Rizatriptan]", "values": [{"measurement": "% PAIN FREE", "setting": "migraine; [10]", "result": 10.4, "unit": "%"}, {"measurement": "% PAIN RELIEF", "setting": "migraine; [10]", "result": 36.6, "unit": "%"}, {"measurement": "% PAIN FREE", "setting": "migraine; [11]", "result": 40.3, "unit": "%"}, {"measurement": "% PAIN RELIEF", "setting": "migraine; [11]", "result": 67.0, "unit": "%"}, {"measurement": "% PAIN FREE", "setting": "migraine; [12]", "result": 7.7, "unit": "%"}, {"measurement": "% PAIN RELIEF", "setting": "migraine; [12]", "result": 39.8, "unit": "%"}, {"measurement": "% PAIN FREE", "setting": "migraine; [13]", "result": 34.8, "unit": "%"}, {"measurement": "% PAIN RELIEF", "setting": "migraine; [13]", "result": 58.6, "unit": "%"}, {"measurement": "% PAIN FREE", "setting": "migraine; [14]", "result": 13.0, "unit": "%"}, {"measurement": "% PAIN RELIEF", "setting": "migraine; [14]", "result": 44.9, "unit": "%"}, {"measurement": "% PAIN FREE", "setting": "migraine; [15]", "result": 42.2, "unit": "%"}, {"measurement": "% PAIN RELIEF", "setting": "migraine; [15]", "result": 74.1, "unit": "%"}]}
